The subject of series [1] is Acinetobacter baumannii. Nature of the series: Antimicrobial activity against Acinetobacter baumannii ATCC 17978 by microdilution broth method. Type of series: functional. (In broth dilution the organism is exposed to a series of concentrations in liquid medium.)
The next series concerns Enterococcus faecium. Nature of the series: Antibacterial activity against vancomycin resistant Enterococcus faecium NCTC 12204 by microdilution broth method. In kind it is functional.
Series [2] relates to Enterococcus faecalis. Nature of the series: Antibacterial activity against vancomycin resistant Enterococcus faecalis NCTC 12201 by microdilution broth method. Type of series: functional.
The test system of series [3] is Staphylococcus aureus. Nature of the series: Antibacterial activity against methicillin resistant Staphylococcus aureus NCTC 13616 by microdilution broth method. Type of series: functional.
Series [4] deals with Staphylococcus aureus. Nature of the series: Antibacterial activity against methicillin resistant Staphylococcus aureus NCTC 13277 by microdilution broth method. In kind it is functional.
The subject of series [5] is Staphylococcus aureus. Nature of the series: Antibacterial activity against methicillin sensitive Staphylococcus aureus NCTC 6571 by microdilution broth method. Type of series: functional.
Series [6] concerns DNA. Nature of the series: Stabilization of 5'-FAM-TAT-ATA-TAG-ATA-TTT-TTT-TAT-CTA-TAT-ATA-3'-TAMRA DNA (unknown origin) assessed as reduction in change in melting temperature at 1:1 to 5:1 ligand to DNA ratio measured after 3 hrs by FRET-based assay relative to control. In kind it is ADME, nucleic-acid assay.
Series [7] concerns DNA. Nature of the series: Stabilization of 5'-FAM-TAT-AGA-TAT-AGA-TAT-TTT-ATA-TCT-ATA-TCT-ATA-3'-TAMRA DNA (unknown origin) assessed as reduction in change in melting temperature at 1:1 to 5:1 ligand to DNA ratio measured after 3 hrs by FRET-based assay relative to control. In kind it is ADME, nucleic-acid assay.
A short description of series [8]: Cytotoxicity against human WI38 cells assessed as cell viability at 20 uM measured after 24 hrs by MTT assay relative to control. In kind it is cell-based, WI-38. As to conditions: read-out: Activity. (Tetrazolium assays rely on reduction of a dye to a coloured formazan, in cell work by metabolically active cells.)
Series [9] can be described thus: Selectivity ratio of cytotoxicity against human WI38 cells to MIC for Acinetobacter baumannii ATCC 17978. In kind it is toxicity, cell-based.
A short description of series [10]: Selectivity ratio of cytotoxicity against human WI38 cells to MIC for multidrug-resistant Acinetobacter baumannii AYE. Type of series: toxicity, cell-based.
A short description of series [11]: Selectivity ratio of cytotoxicity against human WI38 cells to MIC for Klebsiella pneumoniae M6. In kind it is toxicity, cell-based.
The nature of series [12]: Selectivity ratio of cytotoxicity against human WI38 cells to MIC for multidrug-resistant Klebsiella pneumoniae NCTC 13368. Type of series: toxicity, cell-based.
A short description of series [13]: Selectivity ratio of cytotoxicity against human WI38 cells to MIC for Pseudomonas aeruginosa PAO1. Type of series: toxicity, cell-based.
Series [14] can be described thus: Selectivity ratio of cytotoxicity against human WI38 cells to MIC for multidrug-resistant Pseudomonas aeruginosa NCTC 13437. Type of series: toxicity, cell-based.
The nature of series [15]: Selectivity ratio of cytotoxicity against human WI38 cells to MIC for vancomycin resistant Enterococcus faecium NCTC 12204. In kind it is toxicity, cell-based.
Series [16] is described as follows: Selectivity ratio of cytotoxicity against human WI38 cells to MIC for vancomycin resistant Enterococcus faecalis NCTC 12201. In kind it is toxicity, cell-based.
The nature of series [17]: Selectivity ratio of cytotoxicity against human WI38 cells to MIC for vancomycin sensitive Enterococcus faecalis NCTC 775. Type of series: toxicity, cell-based.
Series [18] can be described thus: Selectivity ratio of cytotoxicity against human WI38 cells to MIC for methicillin resistant Staphylococcus aureus NCTC 13616. In kind it is toxicity, cell-based.
Series [19] is described as follows: Selectivity ratio of cytotoxicity against human WI38 cells to MIC for methicillin resistant Staphylococcus aureus NCTC 13277. Type of series: toxicity, cell-based.
Series [20] in a line: Selectivity ratio of cytotoxicity against human WI38 cells to MIC for methicillin sensitive Staphylococcus aureus NCTC 6571. Type of series: toxicity, cell-based.
The test system of series [21] is Acinetobacter baumannii. Nature of the series: Antimicrobial activity against multidrug-resistant Acinetobacter baumannii AYE by microdilution broth method. Type of series: functional.
In the next series the test system is Pseudomonas aeruginosa. Nature of the series: Antimicrobial activity against Pseudomonas aeruginosa PAO1 by microdilution broth method. Type of series: functional.
The subject of series [22] is Enterococcus faecalis. Nature of the series: Antibacterial activity against vancomycin sensitive Enterococcus faecalis NCTC 775 by microdilution broth method. Type of series: functional.

Each structure is given as a SMILES string. Converted amounts (≈) assume the structure as drawn.

Results on seven compounds are retold here after ChEMBL document CHEMBL4610120, “New Broad-Spectrum Antibiotics Containing a Pyrrolobenzodiazepine Ring with Activity against Multidrug-Resistant Gram-Negative Bacteria” (J Med Chem, 2020).

For orientation: MIC means the smallest concentration in the dilution series that meets the test's criterion for growth inhibition.

As for `COc1cc2c(cc1OCCCC(=O)Nc1cc(C(=O)Nc3ccc4oc(C(=O)N5CCCCC5)cc4c3)n(C)c1)N=C[C@@H]1CCCN1C2=O`, the minimal inhibitory concentration (MIC) was 2 µg/mL (≈ 2.94 µM) in the series with Acinetobacter baumannii [1]; no more than 0.125 µg/mL in the series on Enterococcus faecium; no more than 0.125 µg/mL in the series with Enterococcus faecalis [2]; 0.25 µg/mL (≈ 0.367 µM) in the series with Staphylococcus aureus [3]; 0.5 µg/mL (≈ 0.734 µM) in the series on Staphylococcus aureus [4]; no more than 0.125 µg/mL in the series with Staphylococcus aureus [5]. The fold change (FC) in the series on DNA [6] and with DNA [7] was 3 to 4 throughout. In addition, the viability at 24 h, 20 µM in series [8] was greater than 85%. Moreover, the selectivity ratio in series [9], in series [10], in series [11], in series [12], in series [13] and in [14] was 10 throughout. In addition, the selectivity ratio in series [15], in series [16], in series [17], in series [18], in series [19] and in series [20] was 100 in each case.

Consider `CCN(CC)C(=O)c1cc2cc(NC(=O)c3cc(NC(=O)CCCOc4cc5c(cc4OC)C(=O)N4CCC[C@H]4C=N5)cn3C)ccc2s1`, for which the MIC is 2 µg/mL (≈ 2.92 µM) against Acinetobacter baumannii [1]; 2 µg/mL (≈ 2.92 µM) with Acinetobacter baumannii [21]; 1 µg/mL (≈ 1.46 µM) against Enterococcus faecium; 0.5 µg/mL (≈ 0.73 µM) with Enterococcus faecalis [2]; 1 µg/mL (≈ 1.46 µM) in the series on Staphylococcus aureus [3]; 1 µg/mL (≈ 1.46 µM) with Staphylococcus aureus [4]. Moreover, the fold change (FC) with DNA [6] and in the series on DNA [7] was 3 to 4 throughout. For the same compound, the viability at 24 h, 20 µM in [8] was greater than 85%. Moreover, the selectivity ratio in [9], in series [10], in [11], in series [12], in [13] and in series [14] was 10 throughout. The selectivity ratio in series [15], in series [16], in [17], in [18], in [19] and in series [20] was 100 throughout.

With `COc1cc2c(cc1OCCCC(=O)Nc1cc(C(=O)Nc3ccc4sc(C(=O)N5CCOCC5)cc4c3)n(C)c1)N=C[C@@H]1CCCN1C2=O`, the MIC is 8 µg/mL (≈ 11.4 µM) with Acinetobacter baumannii [1]; 64 µg/mL (≈ 91.6 µM) against Pseudomonas aeruginosa; no more than 0.125 µg/mL in the series with Enterococcus faecium; no more than 0.125 µg/mL in the series with Enterococcus faecalis [2]; no more than 0.125 µg/mL against Enterococcus faecalis [22]; no more than 0.125 µg/mL in the series with Staphylococcus aureus [3]. The MIC in the series with Staphylococcus aureus [4] was 0.5 µg/mL (≈ 0.716 µM); against Staphylococcus aureus [5] it was no more than 0.125 µg/mL. The fold change (FC) with DNA [6] and in the series with DNA [7] was 3 to 4 in each case. Moreover, the viability at 24 h, 20 µM in [8] was greater than 85%. The selectivity ratio in [9], in [10], in series [11], in series [12], in series [13] and in series [14] was 10 each time. Moreover, the selectivity ratio in [15], in series [16], in [17], in series [18], in series [19] and in series [20] was 100 in each case.

`COc1cc2c(cc1OCCCC(=O)Nc1cc(C(=O)Nc3ccc4sc(C(=O)N5CCSCC5)cc4c3)n(C)c1)N=C[C@@H]1CCCN1C2=O`: the MIC in the series on Acinetobacter baumannii [1] was 2 µg/mL (≈ 2.8 µM); against Pseudomonas aeruginosa, 64 µg/mL (≈ 89.5 µM); against Enterococcus faecium, no more than 0.125 µg/mL; in the series on Enterococcus faecalis [2] it was no more than 0.125 µg/mL; with Enterococcus faecalis [22] it was no more than 0.125 µg/mL; in the series on Staphylococcus aureus [3], no more than 0.125 µg/mL. The minimum inhibitory concentration (MIC) with Staphylococcus aureus [4] and in the series with Staphylococcus aureus [5] was no more than 0.125 µg/mL in each case. Moreover, the fold change (FC) in the series on DNA [6] and in the series with DNA [7] was 3 to 4 each time. In addition, the viability at 24 h, 20 µM in series [8] was greater than 85%. Besides, the selectivity ratio in series [9], in [10], in series [11], in series [12], in series [13] and in series [14] was 10 throughout. Further, the selectivity ratio in series [15], in [16], in series [17], in series [18], in series [19] and in [20] was 100 each time.

With `COc1cc2c(cc1OCCCC(=O)Nc1cc(C(=O)Nc3ccc4oc(C(=O)N5CCOCC5)cc4c3)n(C)c1)N=C[C@@H]1CCCN1C2=O`, the minimal inhibitory concentration (MIC) with Acinetobacter baumannii [1] is 8 µg/mL (≈ 11.7 µM); with Pseudomonas aeruginosa it was greater than 128 µg/mL; against Enterococcus faecium it was no more than 0.125 µg/mL; against Enterococcus faecalis [2] it was no more than 0.125 µg/mL; against Enterococcus faecalis [22] it was no more than 0.125 µg/mL; against Staphylococcus aureus [3] it was no more than 0.125 µg/mL. Moreover, in the series on Staphylococcus aureus [5], the MIC is no more than 0.125 µg/mL. The fold change (FC) in the series with DNA [6] and in the series with DNA [7] was 3 to 4 each time. Besides, the viability at 24 h, 20 µM in series [8] is greater than 85%. For the same compound, the selectivity ratio in series [9], in series [10], in series [11], in [12], in series [13] and in [14] was 10 in each case. The selectivity ratio in series [15], in series [16], in series [17], in [18], in series [19] and in [20] was 100 in each case.

`COC(=O)c1cc(NC(=O)c2cc3cc(NC(=O)c4cc(NC(=O)CCCOc5cc6c(cc5OC)C(=O)N5CCC[C@H]5C=N6)cn4C)ccc3s2)cn1C`: the minimum inhibitory concentration (MIC) is 64 µg/mL (≈ 83.6 µM) against Acinetobacter baumannii [1]; 64 µg/mL (≈ 83.6 µM) in the series with Acinetobacter baumannii [21]; greater than 128 µg/mL in the series with Pseudomonas aeruginosa; no more than 0.125 µg/mL against Enterococcus faecium; no more than 0.125 µg/mL in the series with Enterococcus faecalis [2]; no more than 0.125 µg/mL in the series on Enterococcus faecalis [22]. The MIC with Staphylococcus aureus [3] was 0.5 µg/mL (≈ 0.653 µM); in the series with Staphylococcus aureus [4] it was 1 µg/mL (≈ 1.31 µM); in the series with Staphylococcus aureus [5], no more than 0.125 µg/mL. Besides, the fold change (FC) in the series with DNA [6] and in the series on DNA [7] was 3 to 4 throughout. In series [8], the viability at 24 h, 20 µM came out at 32%.

On to `COc1cc2c(cc1OCCCC(=O)Nc1cc(C(=O)Nc3ccc4sc(C(=O)N5CCCCC5)cc4c3)n(C)c1)N=C[C@@H]1CCCN1C2=O`, for which the minimum inhibitory concentration (MIC) against Acinetobacter baumannii [1] is 8 µg/mL (≈ 11.5 µM); with Enterococcus faecium, no more than 0.125 µg/mL; in the series with Enterococcus faecalis [2], no more than 0.125 µg/mL; against Staphylococcus aureus [3], 0.5 µg/mL (≈ 0.718 µM); with Staphylococcus aureus [4], 1 µg/mL (≈ 1.44 µM); against Staphylococcus aureus [5], no more than 0.125 µg/mL. The fold change (FC) in the series with DNA [6] and in the series with DNA [7] was 3 to 4 each time. Also, the viability at 24 h, 20 µM in series [8] was greater than 85%. Also, the selectivity ratio in series [9], in series [10], in series [11], in series [12], in series [13] and in series [14] was 10 throughout. Also, the selectivity ratio in series [15], in [16], in series [17], in series [18], in series [19] and in series [20] was 100 each time.
